From article PMC4188250 (Biochemistry, 2014)
Read-outs that look alike come from different tables or passages of the source.

Tests used:
Cytochrome P450 4A11 [1] = target: T1, Cytochrome P450 4A11 (Homo sapiens, UniProt Q02928); assay: UV-visible spectral binding titration
T1 sequence (Q02928 5-519): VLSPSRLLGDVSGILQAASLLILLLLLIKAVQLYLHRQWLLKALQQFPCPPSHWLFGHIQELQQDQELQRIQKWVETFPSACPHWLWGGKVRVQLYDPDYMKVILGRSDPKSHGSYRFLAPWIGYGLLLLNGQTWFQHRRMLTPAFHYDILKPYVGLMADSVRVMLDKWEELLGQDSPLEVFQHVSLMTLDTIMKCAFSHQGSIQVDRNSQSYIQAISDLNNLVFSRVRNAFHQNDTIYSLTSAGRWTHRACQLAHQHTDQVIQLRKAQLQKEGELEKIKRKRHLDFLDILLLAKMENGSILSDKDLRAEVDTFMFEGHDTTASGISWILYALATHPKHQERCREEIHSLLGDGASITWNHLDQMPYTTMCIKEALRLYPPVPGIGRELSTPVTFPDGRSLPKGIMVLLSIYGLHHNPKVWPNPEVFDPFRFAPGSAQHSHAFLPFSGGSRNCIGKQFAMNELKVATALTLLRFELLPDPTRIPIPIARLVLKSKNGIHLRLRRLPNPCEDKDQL

Cytochrome P450 4A11 [2] = target: T1, Cytochrome P450 4A11; assay: UV-visible spectral binding titration; remark: listed apart in the source

Row | Kd (Cytochrome P450 4A11 [1]) | Structure (SMILES) | Kd (Cytochrome P450 4A11 [2])
1 | 6.7 ± 0.3 µM | CCCCCCCCCCCC(=O)O [lauric acid, dodecanoic acid] | 
2 |  | O=C(O)CCCCCCCCCCCO [12-OH lauric acid] | 5.1 ± 2.1 µM
